# Experimental data published in US5739283A, “Prevention of invasive pulmonary aspergillosis with serine proteinase inhibitors” (The Ohio State Research Foundation, priority 1995, dated 1998).
# Where a name gives a salt, the structure may show the parent alone.
# Experiments:
# [1] = molecular target: T1, A. flavus Serine Protease (Aspergillus flavus, UniProt P35211); test: Residual serine protease activity after preincubation with serine protease inhibitors; format: biochemical; conditions: for Prevention of hydrolysis of Suc-Ala-Ala-Pro-Leu-pNA by A. flavus serine protease (in words): summary of Table 3
# T1 construct: The extracellular serine proteases of A. fumigatus and A. flavus were purified from 5 day cultures; endogenous in cells; host or cells: Aspergillus flavus 5-day culture, extracellular fluid, bacitracin-Sepharose 4B
# T1 sequence (P35211 122-403): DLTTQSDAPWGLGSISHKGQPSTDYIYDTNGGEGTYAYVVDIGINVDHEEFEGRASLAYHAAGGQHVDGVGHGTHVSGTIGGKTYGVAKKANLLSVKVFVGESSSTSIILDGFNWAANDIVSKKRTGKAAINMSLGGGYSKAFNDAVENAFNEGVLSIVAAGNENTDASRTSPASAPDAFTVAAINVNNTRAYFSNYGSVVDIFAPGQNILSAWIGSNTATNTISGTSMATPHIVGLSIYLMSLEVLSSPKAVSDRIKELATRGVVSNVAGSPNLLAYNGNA
# Source text: (§1) The serine protease inhibitors 4-carboxamido-substituted cephem (L-658,758), (S-(R*,S*))-4-((3,3-diethyl-1-((1-(4-methyl-phenyl)butylamino)carbonyl)-4-oxo-2-azetidinyl)oxy)-benzeneacetic acid 2-amino-2-methyl-1-propanol salt (L-680, 833) are known to irreversibly bind to the active site of the elastolytic serine protease obtained from neutrophils. It is also known that the serine protease inhibitor PMSF irreversibly binds to the active site of all serine proteases. The ability of the serine protease inhibitors L-658,758 and L-680,833, both of which were obtained from Merck Chemical Company, Rahway, N.J., and PMSF to block the proteolytic activity of the elastolytic serine proteases from Aspergillus fumigatus and Aspergillus flavus were tested as follows.
# (§2) Reaction mixtures for each protease were prepared by adding the protease to 0.1M Hepes, pH 7.5. The experimental samples were then preincubated for 30 minutes at 22° C. with 1 mM of the inhibitors. At the end of the 30 minute pre-incubation, the chromogenic substrate Suc-Ala-Ala-Pro-Leu-p-Na at a final concentration of 1 mM was added to each sample. The enzyme activity in the samples was monitored by measuring the release of pNA from the chromogenic substrate at 22° C. during a 10 minute reaction time. The enzyme activity in each experimental sample as a percentage of the enzyme activity in the control sample which was taken to be 100% was then determined.
# [2] = molecular target: T2, A. fumigatus Serine Protease (Aspergillus fumigatus, UniProt P28296); test: as above; format: biochemical; conditions: for Serine protease (SP) activity (%), A. fumigatus Serine Protease: inhibitor 1 mM, pH 7.5, 30 min preincubation at 22° C., control = 100%; for Prevention of hydrolysis of Suc-Ala-Ala-Pro-Leu-pNA by A. fumigatus serine protease (in words): summary of Table 3
# T2 construct: The extracellular serine proteases of A. fumigatus and A. flavus were purified from 5 day cultures; endogenous in cells; host or cells: Aspergillus fumigatus 5-day culture, extracellular fluid, bacitracin-Sepharose 4B
# T2 sequence (P28296 122-403): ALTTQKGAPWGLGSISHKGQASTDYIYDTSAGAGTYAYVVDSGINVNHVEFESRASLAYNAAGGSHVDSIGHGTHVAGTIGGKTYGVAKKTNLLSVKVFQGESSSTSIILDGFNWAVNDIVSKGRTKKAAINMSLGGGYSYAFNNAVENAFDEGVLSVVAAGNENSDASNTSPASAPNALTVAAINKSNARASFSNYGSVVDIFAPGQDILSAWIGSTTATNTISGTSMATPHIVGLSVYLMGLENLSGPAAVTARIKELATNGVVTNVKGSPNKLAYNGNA
# Source text: as §1, §2
# [3] = molecular target: porcine pancreatic elastolytic serine protease (Sus scrofa, UniProt P00772); test: as above; format: biochemical; conditions: for Reduction of the activity of porcine serine protease (in words): summary of Table 3
# porcine pancreatic elastolytic serine protease, sequence (P00772 27-266): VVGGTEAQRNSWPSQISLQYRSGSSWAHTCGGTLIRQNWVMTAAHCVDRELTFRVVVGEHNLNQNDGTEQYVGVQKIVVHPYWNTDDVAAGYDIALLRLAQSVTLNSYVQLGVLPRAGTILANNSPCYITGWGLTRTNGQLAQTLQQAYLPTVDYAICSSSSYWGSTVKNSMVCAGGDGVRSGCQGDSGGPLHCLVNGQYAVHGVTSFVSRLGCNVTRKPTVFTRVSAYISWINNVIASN
# Method: as §2
# [4] = statement without test; cited from earlier work
# [5] = background statement; cited from earlier work
# [6] = system: CC(C)C[C@H](NC(=O)[C@@H]1CCCN1C(=O)[C@H](C)NC(=O)[C@H](C)NC(=O)CCC(=O)O)C(=O)Nc1ccc([N+](=O)[O-])cc1; test: purified protein, by the assay type; conditions: other: 22° C., pH 8.0, Lineweaver-Burk plot
# Method: (§3) First the Km values of the elastolytic serine proteases from A. fumigatus and A. flavus were calculated. […] The Km of the elastolytic serine proteases from A. fumigatus and A. flavus were determined using the synthetic chromogenic molecule Suc-Ala-Ala-Pro-Leu-pNa as a substrate. Reaction mixtures were prepared containing 5 μm of various concentrations of the chromogenic substrate dissolved in dimethyl sulfoxide, 990 μm of 0.1M Tris-HCl, buffer pH 8.0, and 5 μm of the aspergillus protease (0.65 mg/ml). The release of pNa from the substrate and the subsequent increase in absorbance of the reaction mixture at 410 nm was monitored at 22° C. for 10 minutes using a Hewlett Packard 8451A diode array spectrophotometer. The initial rates of the enzymatic reaction at 22° C. were then determined for each concentration of substrate and the reciprocals plotted on a Lineweaver-Burk plot.
# (§4) Next the ability of the reversible subtilisin-type inhibitors Barley ASI, purified SSI, and recombinant SSI and of the reversible chymotrypsin-type inhibitors Eglin C, potato protease I1, and potato protease I2 to block hydrolysis of the synthetic chromogenic substrate by the aspergillus elastolytic serine proteases was evaluated. Various concentrations of each inhibitor were pre-incubated for 5 minutes in samples containing the buffer and protease. […]
# [7] = Toxicity of the composition in irradiated, uninoculated mice; format: in vivo, Balb/c mice; conditions: Experiment 1, seven 10 μl treatments of the 50 mg/ml composition over 48 hours
# Method: Tests were conducted to assess the effect of treatment with the pharmaceutical compositions of the present invention on the pathogenesis of invasive pulmonary aspergillosis in immunocompromised animals. To prevent secondary bacterial or viral infections in the treated and control animals, pathogen-free eight-week old female Balb/c mice were housed in a Bioclean laminar flow hood and provided with oxytetracylcine (100 mg/l)-neomycin sulfate (10 mg/l), pH 2.5, from 7 days prior to irradiation until the end of each experiment. Following seven days of treatment with the antibiotics, one group of animals was made immunodeficient by exposure to 400 rads of gamma radiation from a Cesium 137 source.
# To test the toxicity of the pharmaceutical composition of example 1, a second group of irradiated mice, inoculated with 30 ul of Tween alone were treated with a […] the pharmaceutical composition from example 1 according to the same schedule for a total of seven treatments.
# Twenty-five, irradiated, uninoculated animals were also treated with […] of the pharmaceutical composition of example 4 according to the same schedule to assess the toxicity of the composition containing potato protease inhibitor in immunocompromised animals. The effect of treatment with the pharmaceutical composition of example 4 on the survival of uninoculated and aspergillus-inoculated animals is shown in Table 7.
# [8] = molecular target: A. fumigatus elastolytic serine protease (Aspergillus fumigatus, UniProt P28296); test: Inhibition constants (Ki) of reversible inhibitors for A. fumigatus elastolytic serine protease, chromogenic substrate; conditions: summary of Table 2
# A. fumigatus elastolytic serine protease, sequence (P28296 122-403): as the sequence (P28296 122-403) above
# Method: as §3, §4
# [9] = inhibitor 1 mM, pH 7.5, 30 min preincubation at 22° C., control = 100%
molecule,measurement,setting,value
"CO[C@H]1C(=O)N2C(C(=O)N3CCC[C@H]3C(=O)O)=C(COC(C)=O)CS(=O)(=O)[C@H]12 [L658,758, 4-carboxamido-substituted cephem]","Serine protease (SP) activity (%), A. flavus Serine Protease",[1]; [9],91%
same,Prevention of hydrolysis of Suc-Ala-Ala-Pro-Leu-pNA by A. flavus serine protease (in words),[1],ineffective
same,"Serine protease (SP) activity (%), A. fumigatus Serine Protease",[2],93%
same,Prevention of hydrolysis of Suc-Ala-Ala-Pro-Leu-pNA by A. fumigatus serine protease (in words),[2],ineffective
same,"Serine protease (SP) activity (%), Porcine pancreas Serine Protease",[3]; [9],6.6%
same,Reduction of the activity of porcine serine protease (in words),[3],effective at reducing the activity
"CCC[C@@H](NC(=O)N1C(=O)C(CC)(CC)[C@@H]1Oc1ccc(CC(=O)O)cc1)c1ccc(C)cc1 [L680,833, (S-(R*,S*))-4-((3,3-diethyl-1-((1-(4-methyl-phenyl)butylamino)carbonyl)-4-oxo-2-azetidinyl)oxy)-benzeneacetic acid 2-amino-2-methyl-1-propanol salt]",activity at 1000 µM,"[1]; inhibitor 1 mM, pH 7.5, 30 min preincubation at 22° C., control = 100%, read-out: Serine protease (SP) activity (%), A. flavus Serine Protease",89%
same,Prevention of hydrolysis of Suc-Ala-Ala-Pro-Leu-pNA by A. flavus serine protease (in words),[1],ineffective
same,activity at 1000 µM,"[2]; pH 7.5, read-out: Serine protease (SP) activity (%), A. fumigatus Serine Protease",93%
same,Prevention of hydrolysis of Suc-Ala-Ala-Pro-Leu-pNA by A. fumigatus serine protease (in words),[2],ineffective
same,activity at 1000 µM,"[3]; inhibitor 1 mM, pH 7.5, 30 min preincubation at 22° C., control = 100%, read-out: Serine protease (SP) activity (%), Porcine pancreas Serine Protease",12%
same,Reduction of the activity of porcine serine protease (in words),[3],effective at reducing the activity
O=S(=O)(F)Cc1ccccc1 [PMSF],"Serine protease (SP) activity (%), A. flavus Serine Protease",[1]; [9],0%
same,Prevention of hydrolysis of Suc-Ala-Ala-Pro-Leu-pNA by A. flavus serine protease (in words),[1],reduced the enzymatic activity
same,"Serine protease (SP) activity (%), A. fumigatus Serine Protease",[2],0.89%
same,Prevention of hydrolysis of Suc-Ala-Ala-Pro-Leu-pNA by A. fumigatus serine protease (in words),[2],reduced the enzymatic activity
same,"Serine protease (SP) activity (%), Porcine pancreas Serine Protease",[3]; [9],0%
same,Reduction of the activity of porcine serine protease (in words),[3],reduced the enzymatic activity
same,Toxicity (in words),[4],highly toxic
C[C@@H]1[C@H](O)[C@@H](C)/C=C/C=C/C=C/C=C/C=C/C=C/C=C/[C@H](O[C@@H]2O[C@H](C)[C@@H](O)[C@H](N)[C@@H]2O)C[C@@H]2O[C@](O)(C[C@@H](O)C[C@@H](O)[C@H](O)CC[C@@H](O)C[C@@H](O)CC(=O)O[C@H]1C)C[C@H](O)[C@H]2C(=O)O [amphotericin B],Nephrotoxicity,[5],serious side effect
A. flavus elastolytic serine protease (Aspergillus flavus),Km,[6],570 µM
A. fumigatus elastolytic serine protease (Aspergillus fumigatus Af293),Km,[6],350 µM
"SSI: protein produced and secreted by streptomyces, purified from Streptomyces albogriseolus strains (protein, UniProt P01006 32-144, looked up) Subtilisin inhibitor: DAPSALYAPSALVLTVGKGVSATTAAPERAVTLTCAPGPSGTHPAAGSACADLAAVGGDLNALTRGEDVMCPMVYDPVLLTVDGVWQGKRVSYERVFSNECEMNAHGSSVFAF","Mortality of treated, uninoculated, immunocompromised animals",[7],no mortality
same,Inhibition of the elastolytic serine protease from A. fumigatus (in words),[8],greatest inhibitory effect
